Results reported in patent EP0570920A1, “Probe for cannabinoid receptors” (YISSUM RESEARCH AND DEVELOPMENT COMPANY OF THE HEBREW …, priority 1992, dated 1993).
Like-named read-outs stand apart in the source and are kept apart here.

Experiments:
[1] = molecular target: T1, cannabinoid receptor (Rattus norvegicus, UniProt P20272); experiment: Ligand binding assay with [³H]7, centrifugation assay on synaptosomal membrane preparation
T1 construct: a synaptosomal membrane preparation derived from rat whole brain, without brainstem; from tissue; host or cells: rat whole brain without brainstem, synaptosomal membranes
T1 sequence (P20272 whole entry): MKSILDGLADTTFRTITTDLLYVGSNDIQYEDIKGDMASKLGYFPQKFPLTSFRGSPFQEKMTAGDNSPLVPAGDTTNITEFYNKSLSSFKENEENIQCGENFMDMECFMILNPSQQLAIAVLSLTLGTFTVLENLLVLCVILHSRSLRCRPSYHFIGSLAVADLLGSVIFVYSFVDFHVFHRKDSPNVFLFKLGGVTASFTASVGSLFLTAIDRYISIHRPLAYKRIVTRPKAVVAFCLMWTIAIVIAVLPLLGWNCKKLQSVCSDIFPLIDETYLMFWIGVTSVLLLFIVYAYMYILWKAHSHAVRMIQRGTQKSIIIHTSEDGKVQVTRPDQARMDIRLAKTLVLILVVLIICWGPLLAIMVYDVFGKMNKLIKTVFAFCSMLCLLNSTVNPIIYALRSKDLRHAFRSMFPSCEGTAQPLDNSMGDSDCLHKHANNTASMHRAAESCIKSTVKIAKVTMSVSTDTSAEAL

[2] = Discrimination tests / in vivo experiment comparing (3), (7) and Δ¹-THC
[3] = in vivo; cited from earlier work
[4] = cited from earlier work
[5] = cited from earlier work; remark: listed apart in the source
[6] = Solubility of drug in BSA vehicle for binding assay; settings: at concentrations above 5 uM in 5 mg/ml BSA
[7] = molecular target: T1, cannabinoid receptor; settings: cited from earlier work
[8] = pigeons; cited from earlier work

CCCCCCC(C)(C)c1cc(O)c2c(c1)OC(C)(C)C1CCC(CO)CC21 (stereo not drawn) [Compound 7, 7-hydroxy-hexahydrocannabinol-5'-dimethyl heptyl homologue]
times more potent than (3) in the binding experiments [1]: about 4 times
times more potent than Δ¹-THC on binding [1]: about 1000 times
binding potency compared with CP-55940 ([1]; Fig. 1): more potent than CP-55940
binding capacity ([1]; homologous displacement experiments with [³H]7): 4.41 ± 0.08 pmol/mg protein
Kd ([1]; homologous displacement studies, [³H]7, rat whole brain synaptosomal membranes): 0.045 nM
activity in the discrimination tests, (3) versus (7) [2]: essentially equivalent in activity
times more potent than Δ¹-THC in the in vivo experiment [2]: 125 times

CCCCCc1cc(O)c2c(c1)OC(C)(C)C1CCC(C)CC21 (stereo not drawn) [Compound 5a]
cannabimimetic activity relative to axial epimer (6a) [3]: more active

7-hydroxyhexahydrocannabinols [Compound 5b]
times more active than Δ¹-THC in discrimination tests ([4]; depending on the animal used (pigeon or rat) and on the timing of measurement): 3-17 times
activity in discrimination tests relative to axial epimer (6b) ([4]; rat, in vivo): considerably more active

CCCCCCC(C)(C)c1cc(O)c2c(c1)OC(C)(C)[C@H]1CC=C(CO)C[C@H]21 [Compound 4]
Ki [1]: 466 nM
fold less potent than its enantiomer compound 3 (HU-210) in binding ([1]; displacement of [³H]7): 2500 fold
potency relative to (3) in in vivo pharmacological tests ([5]; in vivo): several thousand times less potent

CCCCCc1cc(O)c2c(c1)OC(C)(C)[C@@H]1CCC(C)=C[C@@H]21 [Δ¹-THC, Δ-tetrahydrocannabonol]
solubility in vehicle [6]: partial insolubility

CCCCCCC(C)(C)c1cc(O)c2c(c1)OC(C)(C)[C@@H]1CC=C(CO)C[C@@H]21 [Compound 3]
Ki [1]: 0.188 nM
activity in the discrimination tests, (3) versus (7) [2]: essentially equivalent in activity
potency ratio of 3 to 4 for binding to the cannabinoid receptor [7]: circa 1500
competition for the specific binding of [³H]1 ([7]; membranes from rat brain): completes fully
Ki ([7]; read-out: K, heterologous displacement of [³H]1, membranes from rat brain): 0.234 nM
times more potent than Δ¹-THC in pharmacological tests ([5]; various animal species): 100-800 times
times more potent than Δ¹-THC in drug discrimination [8]: 80 times
